Results reported in ChEMBL document CHEMBL5303573, “Mapping human microbiome drug metabolism by gut bacteria and their genes” (Nature, 2019).

Assays:
[1] = bacteroides fragilis, 12 h, 2 µM
[2] = The drug is tested on Bacteroides dorei strain: DSM17855 for biotransformation. The drug concentrations were measured before and after a 12-h incubation by liquid-chromatography-coupled mass spectrometry (LC–MS); settings: phocaeicola dorei, 2 µM
[3] = bacteroides intestinalis, 12 h, 2 µM
[4] = The drug is tested on Bacteroides vulgatus strain: ATCC8482 for biotransformation. The drug concentrations were measured before and after a 12-h incubation by liquid-chromatography-coupled mass spectrometry (LC–MS); settings: phocaeicola vulgatus, 2 µM
[5] = bacteroides stercoris, 12 h, 2 µM
[6] = The drug is tested on Bacteroides fragilis strain: HMW610 for biotransformation. The drug concentrations were measured before and after a 12-h incubation by liquid-chromatography-coupled mass spectrometry (LC–MS); settings: 2 µM
[7] = The drug is tested on Clostridium symbiosum strain: ATCC14940 for biotransformation. The drug concentrations were measured before and after a 12-h incubation by liquid-chromatography-coupled mass spectrometry (LC–MS); settings: 2 µM
[8] = The drug is tested on Ruminococcus torques strain: ATCC27756 for biotransformation. The drug concentrations were measured before and after a 12-h incubation by liquid-chromatography-coupled mass spectrometry (LC–MS); assay type: ADME; design: dose 2 uM, timepoint 0 vs 12 hours; settings: 2 µM
[9] = The drug is tested on Alistipes indistinctus strain: DSM22520 for biotransformation. The drug concentrations were measured before and after a 12-h incubation by liquid-chromatography-coupled mass spectrometry (LC–MS); settings: 2 µM
[10] = The drug is tested on Clostridium ramosum strain: DSM1402 for biotransformation. The drug concentrations were measured before and after a 12-h incubation by liquid-chromatography-coupled mass spectrometry (LC–MS); settings: thomasclavelia ramosa, 2 µM
[11] = The drug is tested on Bacteroides pectinophilus strain: ATCC43243 for biotransformation. The drug concentrations were measured before and after a 12-h incubation by liquid-chromatography-coupled mass spectrometry (LC–MS); settings: 2 µM
[12] = The drug is tested on Eubacterium ventriosum strain: ATCC27560 for biotransformation. The drug concentrations were measured before and after a 12-h incubation by liquid-chromatography-coupled mass spectrometry (LC–MS); assay type: ADME; design: dose 2 uM, timepoint 0 vs 12 hours; settings: 2 µM
[13] = The drug is tested on Escherichia coli strain: BW25113 for biotransformation. The drug concentrations were measured before and after a 12-h incubation by liquid-chromatography-coupled mass spectrometry (LC–MS); settings: 2 µM
[14] = The drug is tested on Blautia hansenii strain: DSM20583 for biotransformation. The drug concentrations were measured before and after a 12-h incubation by liquid-chromatography-coupled mass spectrometry (LC–MS); settings: 2 µM
[15] = enterocloster bolteae, 12 h, 2 µM
[16] = anaerostipes sp., 12 h, 2 µM
[17] = The drug is tested on Parabacteroides merdae strain: ATCC43184 for biotransformation. The drug concentrations were measured before and after a 12-h incubation by liquid-chromatography-coupled mass spectrometry (LC–MS); settings: 2 µM
[18] = The drug is tested on Bifidobacterium longum subsp. Infantis strain: CCUG52486 for biotransformation. The drug concentrations were measured before and after a 12-h incubation by liquid-chromatography-coupled mass spectrometry (LC–MS); settings: 2 µM
[19] = The drug is tested on Enterobacter cancerogenus strain: ATCC35316 for biotransformation. The drug concentrations were measured before and after a 12-h incubation by liquid-chromatography-coupled mass spectrometry (LC–MS); settings: 2 µM

SMILES | Bacterial Biotransformation [1] | Bacterial Biotransformation [2] | Bacterial Biotransformation [3] | Bacterial Biotransformation [4] | Bacterial Biotransformation [5] | Bacterial Biotransformation [6] | Bacterial Biotransformation [7] | Bacterial Biotransformation [8] | Bacterial Biotransformation [9] | Bacterial Biotransformation [10] | Bacterial Biotransformation [11] | Bacterial Biotransformation [12] | Bacterial Biotransformation [13] | Bacterial Biotransformation [14] | Bacterial Biotransformation [15] | Bacterial Biotransformation [16] | Bacterial Biotransformation [17] | Bacterial Biotransformation [18] | Bacterial Biotransformation [19]
CCN(C(C)=O)c1cccc(-c2ccnc3c(C#N)cnn23)c1 [ZALEPLON] | Compound NOT metabolized | Compound metabolized | Compound NOT metabolized | Compound metabolized | Compound NOT metabolized | Compound metabolized | Compound NOT metabolized | Compound NOT metabolized | Compound NOT metabolized | Compound NOT metabolized | Compound NOT metabolized | Compound NOT metabolized | Compound NOT metabolized | Compound metabolized |  |  |  |  | 
CCCCCNC(=N)N/N=C/c1c[nH]c2ccc(OC)cc12.O=C(O)/C=C\C(=O)O [TEGASEROD MALEATE] | Compound NOT metabolized | Compound NOT metabolized | Compound NOT metabolized | Compound NOT metabolized | Compound NOT metabolized | Compound NOT metabolized | Compound NOT metabolized | Compound NOT metabolized | Compound NOT metabolized | Compound NOT metabolized | Compound NOT metabolized | Compound NOT metabolized | Compound NOT metabolized | Compound NOT metabolized | Compound NOT metabolized | Compound NOT metabolized | Compound NOT metabolized | Compound NOT metabolized | 
CCOC(=O)C1=C[C@]2(CC)CCCN3CCc4c(n1c1ccccc41)[C@@H]32 [VINPOCETINE] | Compound NOT metabolized |  | Compound NOT metabolized | Compound NOT metabolized | Compound NOT metabolized |  | Compound NOT metabolized |  | Compound NOT metabolized | Compound NOT metabolized | Compound NOT metabolized | Compound NOT metabolized | Compound NOT metabolized | Compound metabolized | Compound NOT metabolized | Compound NOT metabolized | Compound NOT metabolized | Compound NOT metabolized | 
CC(C)(C)NC[C@H](O)COc1nsnc1N1CCOCC1.O=C(O)/C=C\C(=O)O [TIMOLOL MALEATE] | Compound NOT metabolized | Compound NOT metabolized | Compound NOT metabolized | Compound NOT metabolized | Compound NOT metabolized |  | Compound NOT metabolized | Compound NOT metabolized |  |  | Compound NOT metabolized | Compound NOT metabolized |  | Compound NOT metabolized | Compound NOT metabolized | Compound NOT metabolized | Compound NOT metabolized | Compound NOT metabolized | Compound NOT metabolized
CCOc1ccc(NC(C)=O)cc1 [PHENACETIN] | Compound NOT metabolized | Compound NOT metabolized | Compound NOT metabolized | Compound NOT metabolized | Compound NOT metabolized | Compound NOT metabolized | Compound NOT metabolized | Compound NOT metabolized | Compound NOT metabolized |  | Compound NOT metabolized | Compound NOT metabolized | Compound NOT metabolized | Compound NOT metabolized | Compound NOT metabolized | Compound NOT metabolized | Compound NOT metabolized | Compound NOT metabolized | 
COc1cc2nc(N3CCN(C(=O)c4ccco4)CC3)nc(N)c2cc1OC [PRAZOSIN] | Compound NOT metabolized |  | Compound NOT metabolized |  | Compound NOT metabolized | Compound NOT metabolized |  | Compound NOT metabolized |  | Compound NOT metabolized | Compound NOT metabolized | Compound NOT metabolized |  | Compound NOT metabolized | Compound NOT metabolized | Compound NOT metabolized | Compound NOT metabolized | Compound NOT metabolized | Compound NOT metabolized
O=C1C(CC[S+]([O-])c2ccccc2)C(=O)N(c2ccccc2)N1c1ccccc1 (stereo not drawn) [SULFINPYRAZONE] | Compound metabolized |  |  | Compound NOT metabolized | Compound NOT metabolized | Compound metabolized |  |  | Compound NOT metabolized |  | Compound NOT metabolized | Compound NOT metabolized | Compound NOT metabolized | Compound NOT metabolized | Compound NOT metabolized | Compound NOT metabolized | Compound NOT metabolized | Compound NOT metabolized | Compound metabolized
CC[C@@]1(O)C(=O)OCc2c1cc1n(c2=O)Cc2cc3c(CN(C)C)c(O)ccc3nc2-1 [TOPOTECAN] | Compound NOT metabolized | Compound NOT metabolized | Compound NOT metabolized | Compound NOT metabolized | Compound NOT metabolized | Compound NOT metabolized | Compound NOT metabolized | Compound NOT metabolized |  | Compound NOT metabolized |  | Compound NOT metabolized | Compound NOT metabolized | Compound NOT metabolized | Compound NOT metabolized | Compound NOT metabolized | Compound NOT metabolized | Compound NOT metabolized | Compound NOT metabolized
CCCc1nn(C)c2c(=O)[nH]c(-c3cc(S(=O)(=O)N4CCN(C)CC4)ccc3OCC)nc12.O=C(O)CC(O)(CC(=O)O)C(=O)O [SILDENAFIL CITRATE] | Compound NOT metabolized |  | Compound NOT metabolized | Compound NOT metabolized | Compound NOT metabolized |  | Compound NOT metabolized | Compound NOT metabolized | Compound NOT metabolized |  | Compound NOT metabolized | Compound NOT metabolized | Compound NOT metabolized | Compound metabolized |  | Compound NOT metabolized | Compound NOT metabolized | Compound NOT metabolized | Compound NOT metabolized
CC(C)(C)N.CCC[C@H](N[C@@H](C)C(=O)N1[C@H](C(=O)O)C[C@@H]2CCCC[C@@H]21)C(=O)OCC [PERINDOPRIL ERBUMINE] |  | Compound NOT metabolized | Compound NOT metabolized | Compound NOT metabolized |  |  | Compound NOT metabolized | Compound NOT metabolized | Compound NOT metabolized | Compound NOT metabolized | Compound NOT metabolized | Compound NOT metabolized | Compound NOT metabolized | Compound NOT metabolized | Compound NOT metabolized | Compound NOT metabolized |  | Compound NOT metabolized | 
